Test results: US12448389B2, “BRM targeting compounds and associated methods of use” (Prelude Therapeutics Incorporated, priority 2020, dated 2025)

What was measured:
SMARCA4-HiBiT = target: T1, SMARCA4-HiBiT (Homo sapiens, UniProt P51532); assay: SMARCA4 HiBiT degradation assay in HeLa cells; format: cell-based; details: 18 hours incubation; for DC50: read-out: HeLa-HiBit-SM4 DC50; for Dmax: HeLa, read-out: HeLa-HiBit-SM4 Dmax (%)
T1 construct: SMARCA4-HiBiT knock-in Hela monoclonal cell (CS3023226); host or cells: HeLa monoclonal knock-in line (CRISPR HiBiT knock-in at the endogenous locus, heterozygous)
Protocol: (§1) HiBiT peptide knock-in of SMARCA2 in LgBiT expressing HEK293T cells was performed by CRISPR-mediated tagging system as described Promega. The homozygous HiBiT knock-in on c-terminus SMARCA2 was confirmed by sanger sequence. SMARCA2-HiBiT knock-in Hela monoclonal cell (CS302366) and SMARCA4-HiBiT knock-in Hela monoclonal cell (CS3023226) were purchased from Promega. The heterozygous HiBiT-knock-in was confirmed by sanger sequence in both SMARCA2-HiBiT and SMARCA4-HiBiT monoclonal cells.
(§2) SMARCA2 HiBiT and SMARCA4 HiBiT Degradation Assay in HeLa Cells
(§3) Dispense 10 ul aliquot of prepared Hela-SMARCA2-HiBiT or Hela-SMARCA4-HiBiT cells (1:1 ratio of cells:Trypan Blue (#1450013, Bio-Rad)) onto cell counting slide (#145-0011, Bio-Rad) and obtain cell density and cell viability using cell counter (TC20, Bio-Rad). Remove appropriate volume of resuspended cells from culture flask to accommodate 2500 cells/well @20 μL/well. Transfer Hela-HiBiT cells to 50 mL conical (#430290, Corning). Spin down at 1000 rpm for 5 min using tabletop centrifuge (SPINCHRON 15, Beckman). Discard supernatant and resuspend cell pellet in modified EMEM (#30-2003, ATCC) cell culture media containing 10% FBS (F2422-500ML, Sigma), and 1×Penicillin/Streptomycin (200 g/L) (30-002-CI, Corning) to a cell density of 125,000 cells/mL. Dispense 20 μL of resuspended Hela-HiBit cells per well in 384-well TC treated plate (#12-565-343, Thermo Scientific) using standard cassette (#50950372, Thermo Scientific) on Multidrop Combi (#5840310, Thermo Scientific) inside laminar flow cabinet. Dispense test compounds onto plates using digital liquid dispenser (D300E, Tecan). Incubate plates in humidified tissue culture incubator @37° C. for 18 hours. Add 20 μL of prepared Nano-Glo® HiBiT Lytic detection buffer (N3050, Promega) to each well of 384-well plate using small tube cassette (#24073295, Thermo Scientific) on Multidrop Combi, incubate @RT for 30-60 min. Read plates on microplate reader (Envision 2105, PerkinElmer) using 384 well Ultra-Sensitive luminescence mode. Raw data files and compound information reports are swept into centralized data lake and deconvoluted using automated scripts designed by TetraScience, Inc. Data analysis, curve-fitting and reporting done in Dotmatics Informatics Suite using Screening Ultra module.

SMARCA2-HiBiT = target: T2, SMARCA2-HiBiT (Homo sapiens, UniProt P51531); assay: SMARCA2 HiBiT degradation assay in HeLa cells; format: cell-based; details: 18 hours incubation; for DC50: read-out: HeLa_HiBit-SM2 DC50; for Dmax: HeLa, read-out: HeLa-HiBit-SM2 Dmax (%)
T2 construct: SMARCA2-HiBiT knock-in Hela monoclonal cell (CS302366); host or cells: HeLa monoclonal knock-in line (CRISPR HiBiT knock-in at the endogenous locus, heterozygous)
Protocol: as §1, §2, §3

T2 sequence (P51531 whole entry): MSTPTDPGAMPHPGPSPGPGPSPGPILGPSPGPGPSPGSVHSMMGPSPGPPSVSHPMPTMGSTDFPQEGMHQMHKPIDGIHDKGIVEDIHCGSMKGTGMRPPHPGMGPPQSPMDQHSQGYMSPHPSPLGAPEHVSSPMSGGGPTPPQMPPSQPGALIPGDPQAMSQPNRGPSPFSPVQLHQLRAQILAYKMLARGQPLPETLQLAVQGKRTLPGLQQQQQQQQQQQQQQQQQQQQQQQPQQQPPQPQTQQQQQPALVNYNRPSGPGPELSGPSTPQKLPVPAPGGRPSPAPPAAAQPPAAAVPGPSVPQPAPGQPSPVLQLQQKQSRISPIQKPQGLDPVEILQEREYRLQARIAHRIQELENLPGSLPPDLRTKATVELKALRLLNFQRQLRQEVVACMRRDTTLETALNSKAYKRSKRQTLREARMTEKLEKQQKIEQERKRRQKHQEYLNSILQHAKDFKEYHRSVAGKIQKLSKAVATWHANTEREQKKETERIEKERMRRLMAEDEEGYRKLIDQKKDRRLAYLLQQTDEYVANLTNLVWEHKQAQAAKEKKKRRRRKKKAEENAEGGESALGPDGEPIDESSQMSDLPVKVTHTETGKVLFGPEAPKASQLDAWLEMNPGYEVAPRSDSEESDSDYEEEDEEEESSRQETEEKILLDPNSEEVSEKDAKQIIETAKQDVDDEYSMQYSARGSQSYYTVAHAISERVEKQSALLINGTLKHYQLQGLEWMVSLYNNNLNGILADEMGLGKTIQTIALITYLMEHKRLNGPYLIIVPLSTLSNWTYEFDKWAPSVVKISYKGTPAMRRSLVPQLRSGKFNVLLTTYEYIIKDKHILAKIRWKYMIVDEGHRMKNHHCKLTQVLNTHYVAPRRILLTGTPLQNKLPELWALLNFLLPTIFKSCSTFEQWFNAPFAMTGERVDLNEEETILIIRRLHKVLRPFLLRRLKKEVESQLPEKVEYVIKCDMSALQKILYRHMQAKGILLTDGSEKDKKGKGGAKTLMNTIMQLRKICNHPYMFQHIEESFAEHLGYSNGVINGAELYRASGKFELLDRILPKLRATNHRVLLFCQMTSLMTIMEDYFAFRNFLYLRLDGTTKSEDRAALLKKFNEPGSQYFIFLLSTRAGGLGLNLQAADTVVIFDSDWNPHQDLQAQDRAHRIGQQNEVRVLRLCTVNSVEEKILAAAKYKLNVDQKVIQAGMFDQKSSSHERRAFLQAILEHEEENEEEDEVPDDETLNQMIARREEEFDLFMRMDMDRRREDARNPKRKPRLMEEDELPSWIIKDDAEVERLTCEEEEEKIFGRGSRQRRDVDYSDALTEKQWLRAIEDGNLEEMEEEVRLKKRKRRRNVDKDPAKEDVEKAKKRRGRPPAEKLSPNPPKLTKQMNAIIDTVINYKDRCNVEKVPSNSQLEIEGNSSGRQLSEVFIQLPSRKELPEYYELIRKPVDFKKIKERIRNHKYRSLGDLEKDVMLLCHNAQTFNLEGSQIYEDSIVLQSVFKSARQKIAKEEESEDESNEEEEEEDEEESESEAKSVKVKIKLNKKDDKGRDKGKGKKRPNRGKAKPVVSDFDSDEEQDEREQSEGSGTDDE
T1 sequence (P51532 whole entry): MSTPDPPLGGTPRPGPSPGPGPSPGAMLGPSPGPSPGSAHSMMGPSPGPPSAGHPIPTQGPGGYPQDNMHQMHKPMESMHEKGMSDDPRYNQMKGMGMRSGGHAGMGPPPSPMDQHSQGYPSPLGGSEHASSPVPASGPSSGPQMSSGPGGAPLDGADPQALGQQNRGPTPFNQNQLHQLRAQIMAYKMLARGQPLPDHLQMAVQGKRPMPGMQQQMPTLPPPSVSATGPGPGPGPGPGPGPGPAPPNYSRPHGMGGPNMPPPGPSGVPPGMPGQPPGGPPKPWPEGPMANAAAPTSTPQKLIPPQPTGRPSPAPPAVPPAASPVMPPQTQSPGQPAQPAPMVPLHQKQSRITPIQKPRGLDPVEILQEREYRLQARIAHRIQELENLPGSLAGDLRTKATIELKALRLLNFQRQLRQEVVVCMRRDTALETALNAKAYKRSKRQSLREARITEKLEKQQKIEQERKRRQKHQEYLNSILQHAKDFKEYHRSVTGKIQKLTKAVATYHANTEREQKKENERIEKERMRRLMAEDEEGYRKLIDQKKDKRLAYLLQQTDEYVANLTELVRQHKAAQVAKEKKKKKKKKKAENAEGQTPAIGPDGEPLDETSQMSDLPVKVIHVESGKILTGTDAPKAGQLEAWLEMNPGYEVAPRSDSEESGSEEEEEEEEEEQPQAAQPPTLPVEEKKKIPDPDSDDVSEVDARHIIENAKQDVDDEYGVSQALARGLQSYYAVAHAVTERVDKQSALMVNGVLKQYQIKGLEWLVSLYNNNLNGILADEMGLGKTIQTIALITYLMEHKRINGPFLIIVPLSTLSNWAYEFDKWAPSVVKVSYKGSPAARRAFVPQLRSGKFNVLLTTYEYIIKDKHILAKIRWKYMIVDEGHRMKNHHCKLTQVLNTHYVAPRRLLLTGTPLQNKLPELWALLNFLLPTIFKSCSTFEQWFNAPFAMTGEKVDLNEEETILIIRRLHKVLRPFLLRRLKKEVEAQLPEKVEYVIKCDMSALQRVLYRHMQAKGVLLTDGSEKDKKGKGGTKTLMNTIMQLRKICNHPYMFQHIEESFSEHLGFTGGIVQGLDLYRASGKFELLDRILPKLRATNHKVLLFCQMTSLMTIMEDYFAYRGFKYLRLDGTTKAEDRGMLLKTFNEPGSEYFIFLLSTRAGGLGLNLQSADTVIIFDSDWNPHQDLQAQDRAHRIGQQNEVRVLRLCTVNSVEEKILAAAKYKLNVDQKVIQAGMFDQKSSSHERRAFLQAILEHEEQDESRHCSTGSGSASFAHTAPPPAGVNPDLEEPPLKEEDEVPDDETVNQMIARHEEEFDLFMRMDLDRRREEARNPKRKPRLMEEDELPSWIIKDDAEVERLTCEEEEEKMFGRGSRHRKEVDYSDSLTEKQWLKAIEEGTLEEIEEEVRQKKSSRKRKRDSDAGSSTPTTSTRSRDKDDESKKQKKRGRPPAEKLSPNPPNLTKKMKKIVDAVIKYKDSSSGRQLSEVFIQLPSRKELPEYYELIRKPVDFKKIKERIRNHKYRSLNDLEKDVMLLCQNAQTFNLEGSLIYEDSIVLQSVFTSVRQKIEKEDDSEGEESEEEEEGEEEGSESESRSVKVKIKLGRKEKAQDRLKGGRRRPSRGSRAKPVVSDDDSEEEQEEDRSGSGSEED

DC50 (SMARCA4-HiBiT) [µM] | Dmax (SMARCA4-HiBiT) [%] | DC50 (SMARCA2-HiBiT) [µM] | Dmax (SMARCA2-HiBiT) [%] | HeLa-HiBit-SM4 Dmax (%) (SMARCA4-HiBiT) | HeLa-HiBit-SM2 Dmax (%) (SMARCA2-HiBiT) | SMILES
< 0.01 | 75 to 85 | < 0.01 | > 85 |  |  | O=C1CCC(N2Cc3cc(N4CCO[C@@H](CN5C[C@@H]6[C@H](C5)[C@H]6CN5CCN6c7cc(-c8ccccc8O)nnc7NC[C@H]6C5)C4)ccc3C2=O)C(=O)N1 (stereo partly drawn) [Example 267, 3-(5-((S)-2-(((1R,5S,6R)-6-(((S)-2-(2-hydroxyphenyl)-5,6,6a,7,9,10-hexahydro-8H-pyrazino[1′,2′:4,5]pyrazino[2,3-c]pyridazin-8-yl)methyl)-3-azabicyclo[3.1.0]hexan-3-yl)methyl)morpholino)-1-oxoisoindolin-2-yl)piperidine-2,6-dione]
< 0.01 |  | < 0.01 |  | B (B=75%<Dmax<=85%) | A (A=Dmax>85%) | O=C1CCC(N2C(=O)c3ccc(N4CC[C@H](CN5C[C@@H]6[C@H](C5)[C@H]6CN5CCN6c7cc(-c8ccccc8O)nnc7NC[C@H]6C5)[C@@H](F)C4)cc3C2=O)C(=O)N1 (stereo partly drawn) [Example 194, 2-(2,6-dioxopiperidin-3-yl)-5-[(3R,4R)-3-fluoro-4-[[(1S,5R)-6-[[(10S)-4-(2-hydroxyphenyl)-1,5,6,8,12-pentazatricyclo[8.4.0.02,7]tetradeca-2(7),3,5-trien-12-yl]methyl]-3-azabicyclo[3.1.0]hexan-3-yl]methyl]piperidin-1-yl]isoindole-1,3-dione]
< 0.01 | 75 to 85 | < 0.01 | > 85 |  |  | O=C1CCC(N2C(=O)c3ccc(N4CCN(CC5CCC(CN6CCN7c8cc(-c9ccccc9O)nnc8NC[C@H]7C6)CC5)CC4)cc3C2=O)C(=O)N1 (stereo partly drawn) [Example 168, 2-(2,6-dioxopiperidin-3-yl)-5-(4-((4-(((S)-2-(2-hydroxyphenyl)-5,6,6a,7,9,10-hexahydro-8H-pyrazino[1′,2′:4,5]pyrazino[2,3-c]pyridazin-8-yl)methyl)cyclohexyl)methyl)piperazin-1-yl)isoindoline-1,3-dione]
< 0.01 | 50 to 75 | < 0.01 | 75 to 85 |  |  | O=C1CCC(N2C(=O)c3ccc(N4CC5CCC(C4)C5CN4C[C@@H]5[C@H](C4)[C@H]5CN4CCN5c6cc(-c7ccccc7O)nnc6NC[C@H]5C4)cc3C2=O)C(=O)N1 (stereo partly drawn) [Example 53, 2-(2,6-dioxopiperidin-3-yl)-5-(8-(((1R,5S,6r)-6-(((S)-2-(2-hydroxyphenyl)-5,6,6a,7,9,10-hexahydro-8H-pyrazino [1′,2′:4,5]pyrazino[2,3-c]pyridazin-8-yl)methyl)-3-azabicyclo [3.1,0]hexan-3-yl)methyl)-3-azabicyclo[3.2.1]octan-3-yl)isoindoline-1,3-dione]
0.01 to 0.1 | 75 to 85 | < 0.01 | > 85 |  |  | O=C1CCC(N2Cc3ccc(N4CCN(CCCN5CCC(CN6CCN7c8cc(-c9ccccc9O)nnc8NC[C@H]7C6)CC5)CC4)cc3C2=O)C(=O)N1 (stereo partly drawn) [Example 121, 3-(6-(4-(3-(4-(((S)-2-(2-hydroxyphenyl)-5,6,6a,7,9,10-hexahydro-8H-pyrazino[1′,2′:4,5]pyrazino[2,3-c]pyridazin-8-yl)methyl)piperidin-1-yl)propyl)piperazin-1-yl)-1-oxoisoindolin-2-yl)piperidine-2,6-dione]
< 0.01 | 50 to 75 | < 0.01 | > 85 |  |  | CC1CN(CC2CN(c3ccc4c(c3)C(=O)N(C3CCC(=O)NC3=O)C4=O)C2)CC(C)N1C(=O)N1CCN2c3cc(-c4ccccc4O)nnc3NC[C@H]2C1 (stereo partly drawn) [Example 274, 2-(2,6-dioxopiperidin-3-yl)-5-(3-((4-((S)-2-(2-hydroxyphenyl)-6,6a,7,8,9,10-hexahydro-5H-pyrazino[1 ′,2′:4,5]pyrazino[2,3-c]pyridazine-8-carbonyl)-3,5-dimethylpiperazin-1-yl)methyl)azetidin-1-yl)isoindoline-1,3-dione]
< 0.01 | > 85 | < 0.01 | > 85 |  |  | CC1CN(c2ccc3c(c2)C(=O)N(C2CCC(=O)NC2=O)C3=O)CCC1CN1CCC(CN2CCN3c4cc(-c5ccccc5O)nnc4NC[C@H]3C2)CC1 (stereo partly drawn) [Example 170, 2-(2,6-dioxopiperidin-3-yl)-5-[4-[[4-[[(10S)-4-(2-hydroxyphenyl)-1,5,6,8,12-pentazatricyclo[8.4.0.02,7]tetradeca-2(7),3,5-trien-12-yl]methyl]piperidin-1-yl]methyl]-3-methylpiperidin-1-yl]isoindole-1,3-dione]
< 0.01 | 50 to 75 | < 0.01 | > 85 |  |  | O=C1CCC(N2C(=O)c3ccc(N4CCN(CCN5CCO[C@H](CN6CCN7c8cc(-c9ccccc9O)nnc8NC[C@H]7C6)C5)CC4)cc3C2=O)C(=O)N1 (stereo partly drawn) [Example 159, 2-(2,6-dioxopiperidin-3-yl)-5-(4-(2-((R)-2-(((S)-2-(2-hydroxyphenyl)-5,6,6a,7,9,10-hexahydro-8H-pyrazino[1′,2′:4,5]pyrazino[2,3-c]pyridazin-8-yl)methyl)morpholino)ethyl)piperazin-1-yl)isoindoline-1,3-dione]
< 0.01 | 75 to 85 | < 0.01 | > 85 |  |  | O=C1CCC(N2Cc3ccc(N4CCC(CN5CCN(C(=O)N6CCN7c8cc(-c9cc(F)ccc9O)nnc8NC[C@H]7C6)CC5)CC4)cc3C2=O)C(=O)N1 (stereo partly drawn) [Example 282, 3-(6-(4-((4-((S)-2-(5-fluoro-2-hydroxyphenyl)-6,6a,7,8,9,10-hexahydro-5H-pyrazino[1′,2′:4,5]pyrazino[2,3-c]pyridazine-8-carbonyl)piperazin-1-yl)methyl)piperidin-1-yl)-1-oxoisoindolin-2-yl)piperidine-2,6-dione]
< 0.01 | 75 to 85 | < 0.01 | > 85 |  |  | CC1CN(CC2CCN(c3ccc4c(c3)C(=O)N(C3CCC(=O)NC3=O)C4=O)CC2)CC(C)N1C(=O)N1CCN2c3cc(-c4ccccc4O)nnc3NC[C@H]2C1 (stereo partly drawn) [Example 273, 2-(2,6-dioxopiperidin-3-yl)-5-(4-((4-((S)-2-(2-hydroxyphenyl)-6,6a,7,8,9,10-hexahydro-5H-pyrazino[1′,2′:4,5]pyrazino[2,3-c]pyridazine-8-carbonyl)-3,5-dimethylpiperazin-1-yl)methyl)piperidin-1-yl)isoindoline-1,3-dione]
< 0.01 | > 85 | < 0.01 | > 85 |  |  | CC(CN1CCN2c3cc(-c4ccccc4O)nnc3NC[C@H]2C1)C1CCN(CC2CCN(c3ccc4c(c3)C(=O)N(C3CCC(=O)NC3=O)C4=O)CC2)CC1 (stereo partly drawn) [Example 249, 2-(2,6-dioxopiperidin-3-yl)-5-(4-((4-(1-((S)-2-(2-hydroxyphenyl)-5,6,6a,7,9,10-hexahydro-8H-pyrazino[1′,2′:4,5]pyrazino[2,3-c]pyridazin-8-yl)propan-2-yl)piperidin-1-yl)methyl)piperidin-1-yl)isoindoline-1,3-dione]
< 0.01 | 75 to 85 | < 0.01 | > 85 |  |  | C[C@H]1CN2c3cc(-c4ccccc4O)nnc3NC[C@H]2CN1CC1CCN(CC2CCN(c3ccc4c(c3)C(=O)N(C3CCC(=O)NC3=O)C4=O)CC2)CC1 (stereo partly drawn) [Example 28, 2-(2,6-dioxopiperidin-3-yl)-5-(4-((4-(((6aS,9S)-2-(2-hydroxyphenyl)-9-methyl-5,6,6a,7,9,10-hexahydro-8H-pyrazino[1′,2′:4,5]pyrazino[2,3-c]pyridazin-8-yl)methyl)piperidin-1-yl)methyl)piperidin-1-yl) isoindoline-1,3-dione]
< 0.01 | 50 to 75 | < 0.01 | > 85 |  |  | O=C1CCC(N2C(=O)c3ccc(N4CCC(CN5CC6CC(CN7CCN8c9cc(-c%10ccccc%10O)nnc9NC[C@H]8C7)C6C5)CC4)cc3C2=O)C(=O)N1 (stereo partly drawn) [Example 177, 2-(2,6-dioxopiperidin-3-yl)-5-[4-[[6-[[(10S)-4-(2-hydroxyphenyl)-1,5,6,8,12-pentazatricyclo[8.4.0.02,7]tetradeca-2,4,6-trien-12-yl]methyl]-3-azabicyclo[3.2.0]heptan-3-yl]methyl]piperidin-1-yl]isoindole-1,3-dione]
